Experimental data from patent US12060387B2, “Polypeptide-based shuttle agents for improving the transduction efficiency of polypeptide cargos to the cytosol of target eukaryotic cells, uses thereof, methods and kits relating to same” (priority 2015, dated 2024).
Read-outs that look alike come from different tables or passages of the source. Where no end group is shown, it is not given here.

How the values were obtained:
THP-1 cells = assay: Cell toxicity / % cell viability by flow cytometry (cells in total events v. untreated); format: cell-based, human; details: THP-1, daily 150 min exposure with serum, shuttle 0.8 μM, GFP-NLS 1 μM
Description: (§2) The fluorescence of GFP was quantified using flow cytometry (Accuri C6, Becton, Dickinson and Company (BD)). Untreated cells were used to establish a baseline in order to quantify the increased fluorescence due to the internalization of the fluorescent protein in treated cells. The percentage of cells with a fluorescence signal above the maximum fluorescence of untreated cells, “mean %” or “Pos cells (%)”, is used to identify positive fluorescent cells. “Relative fluorescence intensity (FL1-A)” corresponds to the mean of all fluorescence intensities from each cell with a fluorescent signal after fluorescent protein delivery with the shuttle agent. Also, the events scanned by flow cytometry corresponding to cells (size and granularity) were analyzed. The cellular toxicity (% cell viability) was monitored comparing the percentage of cells in the total events scanned of treated cells comparatively to untreated cells.

[1] = as above; format: cell-based, human; details: human, THP-1 cells, Cell viability (%) (±St. Dev.; n = 3), THP-1; for viability at 15 s, 5 µM: shuttle 5 μM, 15 seconds
Description: as §2

HeLa cells = assay: as above; format: cell-based, Human; details: HeLa, Protocol B, GFP-NLS 5 μM, 10 seconds
Description: as §2

[2] = as above; format: cell-based, Human; details: human, HeLa cells, HeLa, GFP-NLS 5 μM; for viability at 10 s, 35 µM: shuttle 35 μM; for viability at 10 s, 50 µM: shuttle 50 μM
Description: as §2

[3] = Cell viability (%) by flow cytometry; format: cell-based, Chinese hamster; details: CHO cells, Protocol B, shuttle 35 μM, GFP-NLS 5 μM, 10 seconds, read-out: Cell viability (%) (±St. Dev.; n = 3)
Description: (§1) The ability of the shuttle agent His-CM18-PTD4 to deliver GFP-NLS to the nuclei of different adherent and suspension cells using Protocols B (adherent cells) or C (suspension cells) as described in Example 9.1 was examined. The cell lines tested included: HeLa, Balb3T3, HEK 293T, CHO, NIH3T3, Myoblasts, Jurkat, THP-1, CA46, and HT2 cells, which were cultured as described in Example 1. GFP-NLS (5 μM; see Example 5.1) was co-incubated with 35 μM of His-CM18-PTD4 and exposed to adherent cells for 10 seconds (Protocol B), or was co-incubated with 5 μM of His-CM18-PTD4 and exposed to suspension cells for 15 seconds (Protocol C). […] “Pos cells (%)” is the mean percentages of all cells that emanate a GFP signal.

[4] = Cell viability (%) by flow cytometry; format: cell-based; details: GFP-NLS 5 μM, read-out: Cell viability (%) (±St. Dev.; n = 3); for viability at 15 s, 5 µM: Protocol C, shuttle 5 μM, 15 seconds; for viability at 10 s, 35 µM: Protocol B, shuttle 35 μM, 10 seconds
Description: as §1

[5] = Cell viability (%) (±St. Dev.; n = 3), FIG. 22B, Protocol B, 10 seconds, read-out: Cell viability (%) (±St. Dev.; n = 3), FIG. 22B

Question: Which results are given for “HHHHHHKWKLFKKIGAVLKVLTTGYARAAARQARA [His-CM18-PTD4]”?
Answer: Cell viability (%) (±St. Dev.; n = 3) (THP-1 cells; exposure 1 day): 98.4 ± 6.4%; Cell viability (%) (±St. Dev.; n = 3) (THP-1 cells; exposure 3 days): 80.6 ± 4.6%; viability at 1 h, 1 µM ([1]; FIG. 31, Protocol A, shuttle 1 μM, GFP-NLS 5 μM, 1 hour): 96.9 ± 3.6%; viability at 0.5 µM ([1]; FIG. 31, Protocol C, shuttle 0.5 μM, GFP-NLS 5 μM): 82.1 ± 2.7%; viability at 15 s, 5 µM ([1]; FIG. 31, Protocol C, GFP-NLS 5 μM, read-out: Cell viability (%) (±St. Dev.; n = 3), FIG. 31): 64 ± 4.1%; viability at 15 s, 1 µM ([1]; Protocol C, shuttle 1 μM, GFP-NLS 5 μM, incubation time 15 sec, read-out: Cell viability (%) (±St. Dev.; n = 3)): 90 ± 3%; viability at 0.5 min, 1 µM ([1]; Protocol C, shuttle 1 μM, GFP-NLS 5 μM, incubation time 30 sec, read-out: Cell viability (%) (±St. Dev.; n = 3)): 89 ± 1.1%; viability at 1 min, 1 µM ([1]; Protocol C, shuttle 1 μM, GFP-NLS 5 μM, incubation time 60 sec, read-out: Cell viability (%) (±St. Dev.; n = 3)): 85.3 ± 3.6%; viability at 2 min, 1 µM ([1]; Protocol C, shuttle 1 μM, GFP-NLS 5 μM, incubation time 120 sec, read-out: Cell viability (%) (±St. Dev.; n = 3)): 74.3 ± 3.2%; viability at 15 s, 5 µM ([1]; Protocol C, GFP-NLS 5 μM, read-out: Cell viability (%) (±St. Dev.; n = 3)): 64.1 ± 4.5%; viability at 24 h, 0.5 µM ([1]; daily 150 min exposure with serum, shuttle 0.5 μM, GFP-NLS 5 μM, exposure 1 day): 98.2 ± 2.4%; viability at 72 h, 0.5 µM ([1]; daily 150 min exposure with serum, shuttle 0.5 μM, GFP-NLS 5 μM, exposure 3 days): 84.3 ± 3.8%; viability at 24 h, 0.8 µM ([1]; daily 150 min exposure with serum, shuttle 0.8 μM, GFP-NLS 2.5 μM, exposure 1 day, read-out: Cell viability (%) (±St. Dev.; n = 3)): 92.3 ± 1.9%; viability at 72 h, 0.8 µM ([1]; daily 150 min exposure with serum, shuttle 0.8 μM, GFP-NLS 2.5 μM, exposure 3 days, read-out: Cell viability (%) (±St. Dev.; n = 3)): 68.5 ± 2.2%; Cell viability (%) (±St. Dev.; n = 3) (HeLa cells; shuttle 35 μM): 94.6 ± 0.4%; Cell viability (%) (±St. Dev.; n = 3), FIG. 29E (HeLa cells; shuttle 50 μM): 92 ± 3.6%; viability at 1 h, 10 µM ([2]; Cell viability (%) (± St. Dev.; n = 3), Protocol A, shuttle 10 μM, 1 hour): 96.4 ± 2.7%; viability at 10 s, 35 µM ([2]; Cell viability (%) (± St. Dev.; n = 3), Protocol B, 10 seconds, read-out: Cell viability (%) (± St. Dev.; n = 3)): 94.6 ± 0.4%; viability at 10 s, 10 µM ([2]; Cell viability (%) (±St. Dev.; n = 3), FIG. 22B, Protocol B, shuttle 10 μM, 10 seconds): 96.3 ± 2.3%; viability at 10 s, 25 µM ([2]; Cell viability (%) (±St. Dev.; n = 3), FIG. 22B, Protocol B, shuttle 25 μM, 10 seconds): 95.3 ± 3.7%; viability at 10 s, 35 µM [2, 5]: 79.6 ± 5.9%; viability at 10 s, 50 µM [2, 5]: 69.2 ± 2.7%; viability at 10 s, 50 µM ([2]; Cell viability (%) (±St. Dev.; n = 3), FIG. 29A, Protocol B, 10 seconds, read-out: Cell viability (%) (±St. Dev.; n = 3), FIG. 29A): 92 ± 3.6%; viability at 1 min, 10 µM ([2]; Cell viability (%) (±St. Dev.; n = 3), FIG. 29B, Protocol B, shuttle 10 μM, incubation 1 min., read-out: Cell viability (%) (±St. Dev.; n = 3), FIG. 29B): 97.6 ± 2.7%; viability at 2 min, 10 µM ([2]; Cell viability (%) (±St. Dev.; n = 3), FIG. 29B, Protocol B, shuttle 10 μM, incubation 2 min., read-out: Cell viability (%) (±St. Dev.; n = 3), FIG. 29B): 80.9 ± 3.2%; viability at 5 min, 10 µM ([2]; Cell viability (%) (±St. Dev.; n = 3), FIG. 29B, Protocol B, shuttle 10 μM, incubation 5 min., read-out: Cell viability (%) (±St. Dev.; n = 3), FIG. 29B): 66.2 ± 4.4%; viability at 1 min, 20 µM ([2]; Cell viability (%) (±St. Dev.; n = 3), FIG. 29I, Protocol B, shuttle 20 μM, 1 minute, read-out: Cell viability (%) (±St. Dev.; n = 3), FIG. 29I): 81.6 ± 4.5%; viability at 10 s, 35 µM [3]: 92.8 ± 0.1%; viability at 15 s, 5 µM ([4]; human, CA46 cells): 71.6 ± 1%; viability at 10 s, 35 µM ([4]; human, HEK 293T cells): 95.3 ± 1.2%; viability at 15 s, 5 µM ([4]; human, Jurkat cells): 73.6 ± 0.7%; viability at 10 s, 35 µM ([4]; human, Myoblasts): 23.5 ± 1.1%; viability at 10 s, 35 µM ([4]; mouse, Balb3T3 cells): 98.4 ± 0.6%; viability at 15 s, 5 µM ([4]; mouse, HT2 cells): 90.6 ± 1.5%; viability at 10 s, 35 µM ([4]; mouse, NIH3T3 cells): 3.3 ± 5.4%
